Test results reported in ChEMBL document CHEMBL3098100, “Synthesis, characterization and anticancer screening of some novel piperonyl-tetrazole derivatives” (2014).
Active and inactive are the calls of the source. The calls are words filed in the database; no cut-off is given here.

These molecules were tested on HepG2 (assay: Cytotoxicity against human HepG2 cells assessed as growth inhibition at 10^-5 M after 48 hrs by MTT assay). Conditions: HepG2, 48 h, read-out: GI.
Assay type: functional
For `O=C(Cn1nnnc1-c1ccc2c(c1)OCO2)N/N=C/c1cccc([N+](=O)[O-])c1`, the inhibition of growth at 10 µM was 0%. `COc1ccc(/C=N/NC(=O)Cn2nnnc2-c2ccc3c(c2)OCO3)c(OC)c1` was tested, and the inhibition of growth at 10 µM was 0%. For `O=C(Cn1nnnc1-c1ccc2c(c1)OCO2)N/N=C/c1ccccc1`, the inhibition of growth at 10 µM was 0%. Work on `O=C(Cn1nnnc1-c1ccc2c(c1)OCO2)N/N=C/c1ccc(Cl)cc1` yielded an inhibition of growth at 10 µM of 0%. `CCc1ccc(/C=N/NC(=O)Cn2nnnc2-c2ccc3c(c2)OCO3)cc1` showed an inhibition of growth at 10 µM of 0%. Work on `O=C(Cn1nnnc1-c1ccc2c(c1)OCO2)N/N=C/c1ccccc1Cl` yielded an inhibition of growth at 10 µM of 0%. `O=C(Cn1nnnc1-c1ccc2c(c1)OCO2)N/N=C/c1cccs1` gave an inhibition of growth at 10 µM of 0%. For `COc1ccc(/C=N/NC(=O)Cn2nnnc2-c2ccc3c(c2)OCO3)cc1`, the inhibition of growth at 10 µM was 0%. `Cc1ccc(/C=N/NC(=O)Cn2nnnc2-c2ccc3c(c2)OCO3)cc1` was tested, and the inhibition of growth at 10 µM was 0%. With `CCOc1ccc(/C=N/NC(=O)Cn2nnnc2-c2ccc3c(c2)OCO3)cc1` the inhibition of growth at 10 µM was 0%. `O=C(Cn1nnnc1-c1ccc2c(c1)OCO2)N/N=C/c1ccccc1[N+](=O)[O-]` gave an inhibition of growth at 10 µM of 0%. Molecule `O=C(Cn1nnnc1-c1ccc2c(c1)OCO2)N/N=C/c1ccco1` has an inhibition of growth at 10 µM of 0%. In the case of `O=C(Cn1nnnc1-c1ccc2c(c1)OCO2)N/N=C/c1ccc([N+](=O)[O-])cc1`, the inhibition of growth at 10 µM is reported as 0%. `CCOc1ccccc1/C=N/NC(=O)Cn1nnnc1-c1ccc2c(c1)OCO2` gave an inhibition of growth at 10 µM of 0%.

The molecules below were run on MCF7 (assay: Decrease of BRAC1 mRNA expression in human ER positive MCF7 cells by RT-PCR analysis relative to control). Conditions: not given.
Assay type: functional, cell-based
For `O=C(Cn1nnnc1-c1ccc2c(c1)OCO2)N/N=C/c1cccc([N+](=O)[O-])c1`, the Activity was “Active”. `COc1ccc(/C=N/NC(=O)Cn2nnnc2-c2ccc3c(c2)OCO3)c(OC)c1` was tested, and the Activity was “Active”. `O=C(Cn1nnnc1-c1ccc2c(c1)OCO2)N/N=C/c1ccccc1Cl` was tested, and the Activity was “Active”. In the case of `O=C(Cn1nnnc1-c1ccc2c(c1)OCO2)N/N=C/c1ccccc1[N+](=O)[O-]`, the Activity is reported as “Active”. In the case of `O=C(Cn1nnnc1-c1ccc2c(c1)OCO2)N/N=C/c1ccc([N+](=O)[O-])cc1`, the Activity is reported as “Active”.

Each molecule was assayed on MDA-MB-231 (assay: Decrease of CD44 mRNA expression in human ER negative MDA-MB-231 cells by RT-PCR analysis relative to control). Conditions: not given.
Assay type: functional, cell-based
For `O=C(Cn1nnnc1-c1ccc2c(c1)OCO2)N/N=C/c1cccc([N+](=O)[O-])c1`, the Activity was “Active”. For `COc1ccc(/C=N/NC(=O)Cn2nnnc2-c2ccc3c(c2)OCO3)c(OC)c1`, the Activity was “Active”. `O=C(Cn1nnnc1-c1ccc2c(c1)OCO2)N/N=C/c1ccccc1Cl` was tested, and the Activity was “Active”. `O=C(Cn1nnnc1-c1ccc2c(c1)OCO2)N/N=C/c1ccccc1[N+](=O)[O-]` was tested, and the Activity was “Active”. For `O=C(Cn1nnnc1-c1ccc2c(c1)OCO2)N/N=C/c1ccc([N+](=O)[O-])cc1`, the Activity was “Active”.

These molecules were tested on MCF7 (assay: Decrease of p53 and KRT19 mRNA expression in human ER positive MCF7 cells by RT-PCR analysis relative to control). Conditions: not given.
Assay type: functional, cell-based
With `O=C(Cn1nnnc1-c1ccc2c(c1)OCO2)N/N=C/c1cccc([N+](=O)[O-])c1` the Activity was “Active”. For `COc1ccc(/C=N/NC(=O)Cn2nnnc2-c2ccc3c(c2)OCO3)c(OC)c1`, the Activity was “Active”. `O=C(Cn1nnnc1-c1ccc2c(c1)OCO2)N/N=C/c1ccccc1Cl` was tested, and the Activity was “Active”. In the case of `O=C(Cn1nnnc1-c1ccc2c(c1)OCO2)N/N=C/c1ccccc1[N+](=O)[O-]`, the Activity is reported as “Active”. In the case of `O=C(Cn1nnnc1-c1ccc2c(c1)OCO2)N/N=C/c1ccc([N+](=O)[O-])cc1`, the Activity is reported as “Active”.

What follows are molecules tested on MCF7 (assay: Increase of CD44 mRNA expression in human ER positive MCF7 cells by RT-PCR analysis relative to control). Conditions: not given.
Assay type: functional
`O=C(Cn1nnnc1-c1ccc2c(c1)OCO2)N/N=C/c1cccc([N+](=O)[O-])c1` was tested, and the Activity was “Active”. `COc1ccc(/C=N/NC(=O)Cn2nnnc2-c2ccc3c(c2)OCO3)c(OC)c1` was tested, and the “fold change (FC)” value was 2. In the case of `O=C(Cn1nnnc1-c1ccc2c(c1)OCO2)N/N=C/c1ccccc1Cl`, the Activity is reported as “Active”. `O=C(Cn1nnnc1-c1ccc2c(c1)OCO2)N/N=C/c1ccccc1[N+](=O)[O-]` was tested, and the “fold change (FC)” value was 2. For `O=C(Cn1nnnc1-c1ccc2c(c1)OCO2)N/N=C/c1ccc([N+](=O)[O-])cc1`, the Activity was “Active”.

These molecules were tested on MDA-MB-231 (assay: Decrease of BRAC1 mRNA expression in human ER negative MDA-MB-231 cells by RT-PCR analysis relative to control). Conditions: not given.
Assay type: functional
`O=C(Cn1nnnc1-c1ccc2c(c1)OCO2)N/N=C/c1cccc([N+](=O)[O-])c1` was tested, and the “fold change (FC)” value was 2. `COc1ccc(/C=N/NC(=O)Cn2nnnc2-c2ccc3c(c2)OCO3)c(OC)c1` was tested, and the “fold change (FC)” value was 2. For `O=C(Cn1nnnc1-c1ccc2c(c1)OCO2)N/N=C/c1ccccc1Cl`, the “fold change (FC)” value was 2. For `O=C(Cn1nnnc1-c1ccc2c(c1)OCO2)N/N=C/c1ccccc1[N+](=O)[O-]`, the “fold change (FC)” value was 2. For `O=C(Cn1nnnc1-c1ccc2c(c1)OCO2)N/N=C/c1ccc([N+](=O)[O-])cc1`, the “fold change (FC)” value was 2.

Each molecule was assayed on MDA-MB-231 (assay: Reduction of BAX mRNA expression in human ER negative MDA-MB-231 cells by RT-PCR analysis relative to control). Conditions: not given.
Assay type: functional, cell-based
In the case of `O=C(Cn1nnnc1-c1ccc2c(c1)OCO2)N/N=C/c1cccc([N+](=O)[O-])c1`, the Activity is reported as “Active”. With `COc1ccc(/C=N/NC(=O)Cn2nnnc2-c2ccc3c(c2)OCO3)c(OC)c1` the Activity was “Active”. With `O=C(Cn1nnnc1-c1ccc2c(c1)OCO2)N/N=C/c1ccccc1Cl` the Activity was “Active”. For `O=C(Cn1nnnc1-c1ccc2c(c1)OCO2)N/N=C/c1ccccc1[N+](=O)[O-]`, the Activity was “Active”. For `O=C(Cn1nnnc1-c1ccc2c(c1)OCO2)N/N=C/c1ccc([N+](=O)[O-])cc1`, the Activity was “Active”.

These molecules were tested on MCF7 (assay: Reduction of BAX mRNA expression in human ER positive MCF7 cells by RT-PCR analysis relative to control). Conditions: not given.
Assay type: functional
`O=C(Cn1nnnc1-c1ccc2c(c1)OCO2)N/N=C/c1cccc([N+](=O)[O-])c1` was tested, and the “fold change (FC)” value was over 2. In the case of `COc1ccc(/C=N/NC(=O)Cn2nnnc2-c2ccc3c(c2)OCO3)c(OC)c1`, the “fold change (FC)” value is reported as over 2. `O=C(Cn1nnnc1-c1ccc2c(c1)OCO2)N/N=C/c1ccccc1Cl` was tested, and the “fold change (FC)” value was over 2. For `O=C(Cn1nnnc1-c1ccc2c(c1)OCO2)N/N=C/c1ccccc1[N+](=O)[O-]`, the “fold change (FC)” value was over 2. `O=C(Cn1nnnc1-c1ccc2c(c1)OCO2)N/N=C/c1ccc([N+](=O)[O-])cc1` was tested, and the “fold change (FC)” value was over 2.
